Assay results as given in ChEMBL document CHEMBL5523703, “Modulators for palmitoylation of proteins and small molecules” (Eur J Med Chem, 2024).

Experiments:
[1] = Inhibition of Wnt/beta-catenin signalling in Wnt3a stimulated HEK293 cells assessed as reduction in luciferase activity incubated for 24 hrs by TOPFlash luciferase reporter assay; format: cell-based; details: Homo sapiens, HEK293, 24 h
[2] = target: Serine palmitoyltransferase 3 (Homo sapiens, UniProt Q9NUV7); test: Inhibition of SPTLC3 (unknown origin)
[3] = target: Acyl-protein thioesterase 2 (Homo sapiens, UniProt O95372); test: Inhibition of APT2 (unknown origin)
[4] = target: T1, Membrane-bound ghrelin O-acyltransferase MBOAT4 (Mus musculus, UniProt P0C7A3); test: Inhibition of N-terminal His-tagged mouse GOAT expressed in baculovirus infected insect cells
T1 sequence (P0C7A3 whole entry): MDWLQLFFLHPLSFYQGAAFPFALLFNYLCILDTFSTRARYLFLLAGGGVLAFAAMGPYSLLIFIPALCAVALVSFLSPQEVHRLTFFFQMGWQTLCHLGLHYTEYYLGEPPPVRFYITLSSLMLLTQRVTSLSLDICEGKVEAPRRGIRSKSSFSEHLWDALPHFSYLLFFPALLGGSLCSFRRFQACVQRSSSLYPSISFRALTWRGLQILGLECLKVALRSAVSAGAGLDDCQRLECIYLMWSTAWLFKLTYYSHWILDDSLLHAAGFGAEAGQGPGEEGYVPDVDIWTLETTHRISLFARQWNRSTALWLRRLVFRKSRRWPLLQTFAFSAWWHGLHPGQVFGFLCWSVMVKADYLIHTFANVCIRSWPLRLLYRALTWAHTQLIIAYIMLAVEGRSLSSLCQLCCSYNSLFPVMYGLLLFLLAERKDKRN

[5] = Inhibition of SPT (unknown origin); parameters: species or system Homo sapiens
[6] = target: T2, Palmitoyl-protein thioesterase ABHD10, mitochondrial (Homo sapiens, UniProt Q9NUJ1); test: Inhibition of ABHD10 (unknown origin)
T2 sequence (Q9NUJ1 whole entry): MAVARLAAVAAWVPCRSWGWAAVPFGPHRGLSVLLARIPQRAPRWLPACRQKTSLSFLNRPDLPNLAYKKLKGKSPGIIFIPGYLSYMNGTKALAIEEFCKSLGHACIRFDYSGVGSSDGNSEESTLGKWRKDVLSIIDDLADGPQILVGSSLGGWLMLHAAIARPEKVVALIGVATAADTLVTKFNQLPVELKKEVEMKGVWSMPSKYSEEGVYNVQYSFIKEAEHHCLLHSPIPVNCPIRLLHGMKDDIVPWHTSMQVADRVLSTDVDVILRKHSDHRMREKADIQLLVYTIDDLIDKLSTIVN

[7] = target: T3, Membrane-bound ghrelin O-acyltransferase MBOAT4 (Homo sapiens, UniProt Q96T53); test: Inhibition of GOAT (unknown origin)
T3 sequence (Q96T53 whole entry): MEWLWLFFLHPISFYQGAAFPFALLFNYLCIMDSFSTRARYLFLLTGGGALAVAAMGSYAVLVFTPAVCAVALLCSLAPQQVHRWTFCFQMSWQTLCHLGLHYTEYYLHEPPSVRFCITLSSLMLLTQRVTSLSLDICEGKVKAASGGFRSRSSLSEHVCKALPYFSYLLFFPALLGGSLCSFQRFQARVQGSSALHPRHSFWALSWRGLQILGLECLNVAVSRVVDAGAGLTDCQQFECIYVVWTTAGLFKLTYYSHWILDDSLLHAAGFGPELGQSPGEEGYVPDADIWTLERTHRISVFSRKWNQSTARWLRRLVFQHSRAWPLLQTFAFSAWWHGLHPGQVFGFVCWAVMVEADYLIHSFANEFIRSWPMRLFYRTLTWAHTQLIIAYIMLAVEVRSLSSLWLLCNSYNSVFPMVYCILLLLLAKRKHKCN

[8] = cells; details: Homo sapiens, HEK-293T, 24 h
[9] = target: T4, Phosphatidylserine lipase ABHD16A (Homo sapiens, UniProt O95870); test: Inhibition of recombinant human ABHD16A expressed in HEK293T cells incubated for 1 hr by fluorescence based analysis; format: cell-based
T4 sequence (O95870 whole entry): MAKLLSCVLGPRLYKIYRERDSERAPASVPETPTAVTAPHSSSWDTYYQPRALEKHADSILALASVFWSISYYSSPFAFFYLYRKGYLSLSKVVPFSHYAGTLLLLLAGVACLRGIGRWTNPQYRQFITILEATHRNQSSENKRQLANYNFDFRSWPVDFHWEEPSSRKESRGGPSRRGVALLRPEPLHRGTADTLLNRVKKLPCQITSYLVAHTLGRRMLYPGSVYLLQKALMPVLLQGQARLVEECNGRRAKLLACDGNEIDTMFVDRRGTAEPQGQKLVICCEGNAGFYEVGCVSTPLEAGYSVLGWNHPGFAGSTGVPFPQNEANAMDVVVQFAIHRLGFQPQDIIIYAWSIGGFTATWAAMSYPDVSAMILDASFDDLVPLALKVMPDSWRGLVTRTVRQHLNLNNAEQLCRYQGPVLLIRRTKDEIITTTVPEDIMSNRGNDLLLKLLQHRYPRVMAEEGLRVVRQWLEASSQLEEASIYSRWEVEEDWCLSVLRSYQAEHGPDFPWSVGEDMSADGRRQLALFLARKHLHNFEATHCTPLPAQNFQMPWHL

[10] = Inhibition of Wnt/beta-catenin signalling in HEK293 cells assessed as reduction in luciferase activity incubated for 24 hrs by TOPFlash luciferase reporter assay; format: cell-based; details: Homo sapiens, HEK293, 24 h
[11] = organism: Homo sapiens; test: Inhibition of ZDHHC (unknown origin) at 20 uM relative to control
[12] = test system: HCC4006; test: cells; details: Homo sapiens, HCC4006, 24 h

Chain of Acyl-protein thioesterase 2 (O95372 whole entry): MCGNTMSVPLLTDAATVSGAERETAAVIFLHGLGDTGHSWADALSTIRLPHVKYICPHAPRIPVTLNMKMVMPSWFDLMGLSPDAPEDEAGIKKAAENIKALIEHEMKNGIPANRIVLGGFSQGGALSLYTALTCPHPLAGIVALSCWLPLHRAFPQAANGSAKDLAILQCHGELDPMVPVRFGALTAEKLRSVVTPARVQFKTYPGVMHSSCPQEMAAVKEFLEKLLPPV
Chain of Serine palmitoyltransferase 3 (Q9NUV7 whole entry): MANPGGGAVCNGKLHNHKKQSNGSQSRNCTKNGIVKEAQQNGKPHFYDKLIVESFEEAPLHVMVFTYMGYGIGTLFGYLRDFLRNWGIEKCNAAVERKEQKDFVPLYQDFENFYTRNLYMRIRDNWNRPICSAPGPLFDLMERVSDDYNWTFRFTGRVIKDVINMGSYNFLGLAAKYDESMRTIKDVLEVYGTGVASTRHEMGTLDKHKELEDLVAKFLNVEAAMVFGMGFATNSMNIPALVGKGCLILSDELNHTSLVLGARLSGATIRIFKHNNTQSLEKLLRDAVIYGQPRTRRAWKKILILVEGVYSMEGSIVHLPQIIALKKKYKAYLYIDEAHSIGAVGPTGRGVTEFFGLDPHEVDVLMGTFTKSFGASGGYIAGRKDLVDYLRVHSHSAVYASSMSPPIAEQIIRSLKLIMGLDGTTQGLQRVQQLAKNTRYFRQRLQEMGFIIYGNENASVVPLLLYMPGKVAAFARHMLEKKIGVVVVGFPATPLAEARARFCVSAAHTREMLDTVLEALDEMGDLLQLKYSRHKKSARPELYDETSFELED

SMILES: C[C@H](C(=O)Nc1ccc(-c2ccsc2)cc1)n1cnc2c1c(=O)n(C)c(=O)n2C
- IC50 [1]: 0.5 nM

SMILES: COc1ccc(C(=O)N2CC[C@H](NC(=O)c3ccccc3Cl)c3c2cnn3C(C)C)cc1OC
- IC50 [2]: 4 nM

SMILES: CCCCCCCCCC[C@@H]1C(=O)O[C@H]1CCc1ccc(OC)c(OC)c1 [PALMOSTATIN B]
- IC50 [3]: 19.6 nM

SMILES: COc1ccc(C(=O)N2CC[C@H](NC(=O)c3ccccc3OC(F)(F)F)c3c2cnn3CCCCCNC(=O)CCC2=[N+]3C(=Cc4c(C)cc(C)n4[B-]3(F)F)C=C2)cc1OC
- IC50 [2]: 0.8 nM

SMILES: CCCCCCN(C(C)=O)C(C(=O)NCc1ccccc1)c1ccc2cc(O)ccc2c1 (configuration not stated)
- IC50 [4]: 7540 nM

SMILES: CCCCCC[C@@H](O)CCCCCCCCC[C@H](CO)C(=O)O
- IC50 [5]: 24 nM

SMILES: CC[C@@]1(c2cccc(C)c2)C(=O)N(C(=O)OC)N1C(=O)OC
- IC50 [6]: 210 nM

SMILES: CCCCCC[C@@H](O)CCCCCC/C=C/[C@H](OC(C)=O)[C@@H](O)[C@H](O)[C@H](N)C(=O)O
- IC50 [5]: 100 nM

SMILES: C#CCCCCCCCC[C@@H]1C(=O)O[C@H]1CCc1ccc(OC)c(OC)c1
- IC50 [3]: 23.7 nM

SMILES: COc1ccc([C@@]23Oc4cc(OC)cc(OC)c4[C@]2(O)[C@@H]2OC(=O)[C@@H]2[C@H]3c2ccccc2)cc1
- IC50 [6]: 100 nM

SMILES: CC[C@@]1(c2ccc(C)cc2)C(=O)N(C(=O)OC(C)C)N1C(=O)OC(C)C
- IC50 [6]: 30 nM

SMILES: CCCCCCCCCC[C@@H]1OC(=O)[C@H]1CCCCS(=O)(=O)CCCN(C)C
- IC50 [3]: 36.7 nM

SMILES: Cc1nc(N)c(CCC2CCN(C(=O)[C@H](C)NC(=O)c3ccnn3C)CC2)c(Cl)n1
- IC50 [7]: 60 nM

SMILES: Cc1c(-c2ccnc(C(F)(F)F)c2)ncn1CC(=O)Nc1ccc(-c2cnccn2)cn1 [ZAMAPORVINT]
- IC50 [8]: 0.064 nM

SMILES: CCCCCCCCCCCCCC1OC(=O)/C1=C\CCCCC(N)=O (configuration not stated)
- IC50 [9]: 200 nM

SMILES: O=S(=O)(c1ccc2oc(-c3cccnc3)nc2c1)c1ccc2oc(-c3cccnc3)nc2c1
- IC50 [10]: 16 nM

SMILES: CCCCCCCC(=O)NC[C@H](NC(=O)[C@H](CO)NC(=O)CN)C(=O)N[C@@H](Cc1ccccc1)C(=O)N[C@@H](CC(C)C)C(=O)N[C@@H](CO)C(=O)N1CCC[C@H]1C(=O)N[C@@H](CCC(=O)O)C(=O)N[C@@H](Cc1cnc[nH]1)C(=O)N[C@@H](CCC(N)=O)C(=O)N[C@@H](CCCCN)C(=O)N[C@@H](C)C(=O)N[C@@H](CCC(N)=O)C(=O)N[C@@H](CCC(N)=O)C(=O)N[C@@H](CCCNC(=N)N)C(=O)N[C@@H](CCCCN)C(=O)N[C@@H](CCC(=O)O)C(=O)N[C@@H](CO)C(=O)N[C@@H](CCCCN)C(=O)N[C@@H](CCCCN)C(=O)N1CCC[C@H]1C(=O)N1CCC[C@H]1C(=O)N[C@@H](C)C(=O)N[C@@H](CCCCN)C(=O)N[C@@H](CC(C)C)C(=O)N[C@@H](CCC(N)=O)C(=O)N1CCC[C@H]1C(=O)N[C@@H](CCCNC(=N)N)C(=O)O
- IC50 [4]: 200 nM

SMILES: CCCCCCCCN(C(C)=O)C(C(=O)NCc1ccccc1)c1ccc2cc(O)ccc2c1 (configuration not stated)
- IC50 [4]: 13100 nM

SMILES: C#CCCCN(C)CCCS(=O)(=O)CCCC[C@@H]1C(=O)O[C@H]1CCCCCCCCCC
- IC50 [3]: 64.4 nM

SMILES: C=CC(=O)N(C)CCCCCCCCCCCCCC
- inhibition [11]: 67.3%

SMILES: COc1cc(C(=O)N2CC[C@H](NC(=O)c3ccccc3OC(F)(F)F)c3c2cnn3C(C)C)cnc1OC
- IC50 [12]: 3.9 nM

SMILES: Cn1c(=O)c2c(ncn2CC(=O)Nc2ccc(-c3ccccc3)nn2)n(C)c1=O [ETC-159]
- IC50 [8]: 2.9 nM
